Laboratory results as given in patent US20250332212A1, “METHOD FOR TREATING OR PREVENTING ALOPECIA” (Suzhou Mingren Pharmaceutical Biotechnology Co., Ltd., priority 2024, published 2025).
Square brackets hold non-standard residues; d marks the D form. Ends that are not written are not given here. pS = N[C@@H](COP(=O)(O)O)C(=O)O

Tests used:
SRD5A2 = experiment: qPCR of SRD5A2 mRNA in skin tissue of model mice; type: in vivo, mouse; conditions: model II, P>0.05
Protocol: 6.1) Sample preparation: 15-20 mg of mouse skin tissue was placed in a 1.5 mL centrifuge tube, and 600 μL of pre-cooled lysate was quickly added, and homogenized with an electric homogenizer. The homogenate obtained was blown gently 10 times, left at room temperature for 3-5 min, then centrifuged at 14,000×g for 5 min, and the supernatant was transferred to a new centrifuge tube with a pipette gun of suitable volume.
6.10) Reverse transcribe the RNA into cDNA according to the instructions of the reverse transcription kit, and then carry out subsequent experiments or store at −20° C. for later use.
(§1) 7.1) Dilute the specific gene amplification primers to 10 µM in ddH2O, prepare the qPCR reaction system according to the instructions in the kit and add them sequentially into a 384-well plate.
(§2) 7.3) Relative mRNA expression levels of genes were calculated by the […] relative quantification method using GAPDH as an internal reference.

E2F1 = experiment: qPCR of E2F1 mRNA in skin tissue; type: in vivo, mouse; conditions: after JP1 intervention, P<0.01
Protocol: as §1, §2

integrin αv = experiment: Integrin αv expression in skin tissue (qPCR, immunoblotting, immunofluorescence); type: in vivo, mouse
Text: (§3) In this example, the mRNA expression levels of RGD-targeting molecules in the skin tissues of three groups of mice, namely, the AGA model control group, the model group and the JP1-treated group, were further examined.
(§4) To verify whether JP1 targeted integrin molecules are localized in hair follicles in the skin tissue, this example detected the expression levels, tissue localization, and distribution of integrin αv and integrin β1 in the skin tissue of the mouse model in Example 6 using immunofluorescence staining.
(§5) 4.1) Protein extraction: 70 mg of skin tissue was placed in a 1.5 mL centrifuge tube, and 500 μL of tissue lysate RIPA containing protease inhibitor and phosphatase inhibitor was added. The tissue was placed on an ice box, pulverized by a tissue grinder, and then ultrasonically crushed to obtain a tissue suspension, which was then placed in a rotary windmill at 4° C. to be lysed for 2 h. The centrifuge was set at 12,000×g, 4° C., centrifuged for 15 min, and the supernatant was collected as the total protein.
(§6) 5.1) Heating of protein samples: the total protein content of each tissue was 50 μg; calculate the volume of a corresponding protein sample, make up the volume with saline to 16 μL, then add 4 μL of 5×SDS sampling buffer, heat at 100° C. for 5 min, and then cool at room temperature and store at −20° C.
as §1, §2
(§7) 9.5) Primary antibody incubation: the tissue was circled by the histochemical pen, about 50 μL of primary antibody was added dropwise to the tissue, and incubated in a wet box overnight at 4° C., washed 3 times with PBS.

[1] = system: TP-induced AGA model mice; experiment: TP-induced AGA model, Animal model III (specific inhibition of SP1 by MTA); type: in vivo, C57BL/6J male mice
Text: To verify that JP1 promotes AGA follicle regeneration through the activation of the Wnt/β-catenin signaling pathway via the MAPK/E2F1/SP1 signaling axis, the example constructed a mouse model of AGA with specific inhibition of SP1 (FIG. 15A). The specific experimental details are described according to “Animal model III” of “1. TP-induced AGA model” in “Experimental Methods”.
To further confirm that JP1 promotes the growth of hair follicles on the back of AGA model mice through the SP1-regulated Wnt/β-catenin signaling pathway at the histomorphometric level, H&E staining was performed on the skin tissues of the model mice of Example 15 at different time points (days 4, 8, and 12 post-intervention).
The mice used in this study were 5-week-old C57BL/6J male mice (18-20 g), which were purchased from Jiangsu Jicui Pharmachem Biotechnology Co. All the animals used in the experiments were housed in the SPF-level environment of the Medical Laboratory Animal Center of Nanjing Medical University, and the relevant animal experimental operations were approved by the Animal Ethics Committee of Nanjing Medical University. The control group was left untreated, and the other groups were injected with TP subcutaneously on their backs every day. Two weeks later, the hair on the backs of the mice was shaved with an electric razor, covering an area of 2 cm×4 cm, and then the residual hair was removed with a hair removal cream. The subcutaneous injections of TP on the shaved backs of the mice in the AGA model was continued until the end of the experimental period, and the administration of TP in each of the treatment groups was begun on the 1st day of the dehairing process.
In addition to the normal control group (denoted as control) n=20, all mice injected subcutaneously with TP were randomly divided into the following groups (n=20): the model group (denoted as model), the 1% JP1 (skin-coated), and the 1% JP1+MTA group. […] MTA was administered at a dose of 0.3 mg/kg/d, qd, intraperitoneally, 100 μL/dose.
Mice were weighed every two days during the experiment. Skin color was assessed against skin score charts. The mice were euthanized and treated at the end of the experiment, and skin tissues were taken from the dorsal decorticated area of the mice. Some of the tissues were fixed with 4% paraformaldehyde solution and then paraffin sections were made for H&E or immunofluorescence staining, etc., and some of the tissues were stored in the refrigerator at −80° C. for relevant molecular expression assays (qRT-PCR, Western Blot, IP, etc.).
8.1) Sampling and fixation: After the experiment, skin tissue was taken from the depilated area on the back of the mouse and placed in a 10 mL EP tube. 4% paraformaldehyde was added to the EP tube, and all tissues were immersed to denature and coagulate the proteins of the skin tissue. The original morphology and structure of the cells were maintained.
8.6) H&E staining: the sections pretreated in distilled water were put into aqueous hematoxylin solution for a few minutes for staining. The color was separated in acid water and ammonia for a few seconds each. After rinsing in running water for 1 h, the sections were placed in distilled water for a few moments. The sections were dehydrated in 70% and 90% alcohol for 10 min each, and stained in alcoholic eosin stain for 2-3 min.

Wnt10b = Wnt10b expression in skin tissue (qPCR, Western blotting); type: in vivo, mouse
Protocol: (§8) To illustrate the regulation of JP1 on the upstream Wnt ligand of β-catenin, this example intersected classical signaling pathway-related Wnt ligands and AGA-related Wnt ligands, and screened out the related Wnt ligands, including Wnt1, Wnt3a, Wnt7b, Wnt10a, and Wnt10b. In this example, qPCR was used to detect the mRNA expression of these Wnt molecules in the skin tissue of the mouse model in Example 6.
as §5
as §6, with “−20° C. […]” for “−20° C.”
as §2

integrin β1 = experiment: Integrin β1 expression in skin tissue (qPCR, immunoblotting, immunofluorescence); type: in vivo, mouse
Text: as §3, §4, §5, §6, §1, §2, §7

Wnt10a = Wnt10a expression in skin tissue (qPCR, Western blotting); type: in vivo, mouse
Protocol: as §8, §5
as §6, with “−20° C. […]” for “−20° C.”
as §2

[2] = mouse, in vivo
Protocol: In this Example, to elucidate the mechanism of JP1 penetrating the skin and acting on the hair follicle, a 14-day AGA modeling was performed according to the model design strategy of Example 1 above. Thereafter, a 1% FITC-JP1 solution was applied to the dorsal depilated area of the mice in a light-avoidance environment. Five time points were set at 0.5, 1, 2, 4 and 8 h for observation. The fresh skin tissue was made into frozen sections, and the penetration pathway of JP1 in the skin tissue and the amount of aggregation in the hair follicles were observed under an inverted fluorescence microscope.
15 C57BL/6J male mice were dorsally depilated after two weeks of continuous TP injection. A 1% FITC-JP1 solution was applied locally to the depilated area of the mice on the 1st day after depilation, no light, in five groups of 0.5 h, 1 h, 2 h, 4 h and 8 h (n=3).
The back skin was removed at the corresponding time points and fixed in 4% paraformaldehyde. After 48 h of fixation, the skin tissue was successively dehydrated in 20% and 30% sucrose solution for 2 days each. After gradient dehydration, sections (20 μm) were made using a frozen microtome. Zeiss inverted fluorescence microscope was used to photograph the fluorescent sections.

[3] = each JP1 intervention group, localized in the site of hair follicles
[4] = skin tissue, immunoblotting, JP1 P<0.01
[5] = skin tissue, qPCR, decreased in TP model group, P<0.01
[6] = 1% JP1 skin-coated, MTA 0.3 mg/kg/d intraperitoneally
[7] = Western blotting, dose-dependent

FPGSDRF-RGD (FPG[pS]DRFRGD) [JP1]
SRD5A2 mRNA level, difference between groups (SRD5A2): no statistically significant difference
E2F1 mRNA level expression (E2F1): elevated
integrin αv expression, immunofluorescence staining (integrin αv; [3]): elevated
integrin αv protein level (TP-down-regulated) (integrin αv; [4]): reversed
integrin αv expression at the end of the model (integrin αv; skin tissue, qPCR, P<0.01): returned to control levels
integrin αv mRNA expression after JP1 intervention (integrin αv; [5]): significantly elevated
skin color on the back, day 8 [1, 6]: turned gray
skin color on the back, day 10 [1, 6]: changed significantly to black-gray
hair follicle morphology at day 8 vs 1% JP1+MTA group ([1]; H&E longitudinal section, 1% JP1): hair follicles extended downward and the bulbous part of hairs expanded
diameter of the hair bulb ([1]; H&E, day 12, 1% JP1 P<0.001): increased
thickness of the dermis ([1]; H&E, day 12, 1% JP1 P<0.001): increased
total number of hair follicles vs model group and 1% JP1+MTA group ([1]; skin transection, day 8 and day 12, P<0.001): significantly more
Wnt10b protein expression (Wnt10b; [7]): significantly up-regulated
Wnt10b mRNA expression (Wnt10b; qPCR, P<0.05): elevated with a dose-effect relationship
integrin β1 expression, immunofluorescence staining (integrin β1; [3]): elevated
integrin β1 protein level (TP-down-regulated) (integrin β1; [4]): reversed
integrin β1 expression at the end of the model (integrin β1; skin tissue, qPCR, P<0.01): returned to control levels
integrin β1 mRNA expression after JP1 intervention (integrin β1; [5]): significantly elevated
Wnt10a protein expression (Wnt10a; [7]): significantly up-regulated
Wnt10a mRNA expression (Wnt10a; qPCR, P<0.05): elevated with a dose-effect relationship
penetration into skin and follicle tissue [2]: able to penetrate into the skin and enter into the follicle tissue in a targeted manner
